Laboratory results as given in ChEMBL document CHEMBL5360576, “New and promising type of leukotriene B4 (LTB4) antagonists based on the 1,4-benzodioxine structure” (Eur J Med Chem, 2023).

Columns and labels:
Leukotriene B4 receptor [1] = target: T1, Leukotriene B4 receptor (Homo sapiens, UniProt Q9NPC1+Q15722); test: Antagonist activity against LTB4 receptor in human U-937 cells at 0.00001 M incubated for 40 mins by liquid scintillation counting method; format: cell-based; details: dose 10 µM
Leukotriene B4 receptor [2] = target: T1, Leukotriene B4 receptor; test: Antagonist activity against LTB4 receptor in human U-937 cells at 0.0000001 M incubated for 40 mins by liquid scintillation counting method; format: cell-based; details: dose 100 nM
Leukotriene B4 receptor [3] = target: T1, Leukotriene B4 receptor; test: Antagonist activity against LTB4 receptor in human U-937 cells incubated for 40 mins by liquid scintillation counting method; format: cell-based
Leukotriene B4 receptor [4] = target: T1, Leukotriene B4 receptor; test: Antagonist activity against LTB4 receptor (unknown origin) assessed as inhibition constant; format: protein assay
Rattus norvegicus [5] = test: Antinflammatory activity against carrageenan induced pedal edema rat model assessed as reduction in edema at 30 mg/kg,po administration and measured after 1 hr relative to control; format: functional; parameters: scale not given: the % may be the effect or the level left
Rattus norvegicus [6] = test: Antinflammatory activity against carrageenan induced pedal edema rat model assessed as reduction in edema at 30 mg/kg,po administration and measured after 2 hrs relative to control; format: functional; parameters: scale not given: the % may be the effect or the level left
Rattus norvegicus [7] = test: Antinflammatory activity against carrageenan induced pedal edema rat model assessed as inflammation at 30 mg/kg,po administration and measured after 4 hrs (reference value: 58.75 +/- 3.5 %); format: functional
Rattus norvegicus [8] = test: Antinflammatory activity against carrageenan induced pedal edema rat model assessed as inflammation at 30 mg/kg,po administration and measured after 2 hrs (reference value: 45.39 +/- 6.82 %); format: functional
Rattus norvegicus [9] = test: Antinflammatory activity against carrageenan induced pedal edema rat model assessed as average pedal volume at 30 mg/kg,po administration and measured after 2 hrs (reference value: 2.2 +/- 0.1 mL); format: functional
Rattus norvegicus [10] = test: Antinflammatory activity against carrageenan induced pedal edema rat model assessed as average pedal volume at 30 mg/kg,po administration and measured after 4 hrs (reference value: 2.41 +/- 0.05 mL); format: functional
Rattus norvegicus [11] = test: Antinflammatory activity against carrageenan induced pedal edema rat model assessed as average pedal volume at 30 mg/kg,po administration and measured after 1 hr (reference value: 1.82 +/- 0.04 mL); format: functional
Rattus norvegicus [12] = test: Antinflammatory activity against carrageenan induced pedal edema rat model assessed as inflammation at 30 mg/kg,po administration and measured after 1 hr (reference value: 20.17 +/- 2.8 %); format: functional
Rattus norvegicus [13] = test: Antinflammatory activity against carrageenan induced pedal edema rat model assessed as reduction in edema at 30 mg/kg,po administration and measured after 4 hrs relative to control; format: functional; parameters: scale not given: the % may be the effect or the level left
Rattus norvegicus [14] = test: Antinflammatory activity against carrageenan induced pedal edema rat model assessed as inflammation at 10 mg/kg,po administration and measured after 2 hrs (reference value: 45.39 +/- 6.82 %); format: functional
Rattus norvegicus [15] = test: Antinflammatory activity against carrageenan induced pedal edema rat model assessed as average pedal volume at 10 mg/kg,po administration and measured after 4 hrs (reference value: 2.41 +/- 0.05 mL); format: functional
Rattus norvegicus [16] = test: Antinflammatory activity against carrageenan induced pedal edema rat model assessed as reduction in edema at 10 mg/kg,po administration and measured after 2 hrs relative to control; format: functional; parameters: scale not given: the % may be the effect or the level left
Rattus norvegicus [17] = test: Antinflammatory activity against carrageenan induced pedal edema rat model assessed as reduction in edema at 10 mg/kg,po administration and measured after 1 hr relative to control; format: functional; parameters: scale not given: the % may be the effect or the level left
Rattus norvegicus [18] = test: Antinflammatory activity against carrageenan induced pedal edema rat model assessed as average pedal volume at 10 mg/kg,po administration and measured after 2 hrs (reference value: 2.2 +/- 0.1 mL); format: functional
Rattus norvegicus [19] = test: Antinflammatory activity against carrageenan induced pedal edema rat model assessed as inflammation at 10 mg/kg,po administration and measured after 4 hrs (reference value: 58.75 +/- 3.5 %); format: functional
Rattus norvegicus [20] = test: Antinflammatory activity against carrageenan induced pedal edema rat model assessed as reduction in edema at 10 mg/kg,po administration and measured after 4 hrs relative to control; format: functional; parameters: scale not given: the % may be the effect or the level left
Rattus norvegicus [21] = test: Antinflammatory activity against carrageenan induced pedal edema rat model assessed as average pedal volume at 10 mg/kg,po administration and measured after 1 hr (reference value: 1.82 +/- 0.04 mL); format: functional
Rattus norvegicus [22] = test: Antinflammatory activity against carrageenan induced pedal edema rat model assessed as inflammation at 10 mg/kg,po administration and measured after 1 hr (reference value: 20.17 +/- 2.8 %); format: functional

T1 sequence (Q15722 whole entry, looked up): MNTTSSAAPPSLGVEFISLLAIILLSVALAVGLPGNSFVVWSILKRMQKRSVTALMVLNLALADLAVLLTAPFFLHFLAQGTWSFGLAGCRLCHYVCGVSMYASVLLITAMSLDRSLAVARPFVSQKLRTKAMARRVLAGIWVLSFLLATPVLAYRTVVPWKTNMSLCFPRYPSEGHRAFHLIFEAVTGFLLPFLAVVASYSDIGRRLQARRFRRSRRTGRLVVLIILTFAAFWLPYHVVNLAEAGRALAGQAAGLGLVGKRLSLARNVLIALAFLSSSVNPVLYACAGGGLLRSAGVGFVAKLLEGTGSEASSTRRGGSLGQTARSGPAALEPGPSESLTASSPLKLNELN
T1 sequence (Q9NPC1 whole entry, looked up): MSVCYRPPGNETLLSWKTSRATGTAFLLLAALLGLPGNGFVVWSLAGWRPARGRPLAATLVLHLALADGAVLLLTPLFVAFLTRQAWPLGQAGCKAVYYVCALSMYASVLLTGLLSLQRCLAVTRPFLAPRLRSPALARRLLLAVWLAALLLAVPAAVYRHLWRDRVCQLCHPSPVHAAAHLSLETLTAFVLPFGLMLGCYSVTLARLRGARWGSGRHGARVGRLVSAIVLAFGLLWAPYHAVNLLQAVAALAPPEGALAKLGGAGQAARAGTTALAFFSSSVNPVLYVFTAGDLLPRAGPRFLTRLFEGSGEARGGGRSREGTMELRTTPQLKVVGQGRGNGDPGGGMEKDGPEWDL

inhibition (Leukotriene B4 receptor [1]; filed as antagonist) [%] | inhibition (Leukotriene B4 receptor [2]) [%] | IC50 (Leukotriene B4 receptor [3]) [nM] | SMILES | further results
82 | 0 | – | CC(OCc1ccccc1)C1=C(C(=O)O)Oc2cc(OCc3ccccc3)ccc2O1 (configuration not stated) | –
62 | 0 | 5610 | O=C(O)C1=C(C(=O)N2CCC(Cc3ccccc3)CC2)Oc2cccc(OCc3ccccc3)c2O1 | –
95 | 25 | 439 | CN(CCc1ccccc1)C(=O)C1=C(C(=O)O)Oc2ccc(OCc3ccccc3)cc2O1 | –
97 | 18 | 710 | CN(CCc1ccccc1)C(=O)C1=C(C(=O)O)Oc2cc(OCc3ccc4ccccc4c3)ccc2O1 | –
– | 12 | – | O=C(O)C1=C(C(=O)N2CCC(c3ccccc3)CC2)Oc2cc(OCc3ccccc3)ccc2O1 | inhibition (Leukotriene B4 receptor [1]): 33%
74 | < 10 | – | CCN(CC)C(=O)C1=C(C(C)OCc2ccccc2)Oc2cc(OCc3ccccc3)ccc2O1 (configuration not stated) | –
– | – | – | CCCc1ccccc1OCCCCCCc1cccc(OCCCCC(=O)O)c1CCC(=O)O | Ki (Leukotriene B4 receptor [4]): 1 nM
99 | 38 | 288 | CN(CCc1ccccc1)C(=O)C1=C(C(=O)O)Oc2cc(OCc3ccccc3)ccc2O1 | Activity (Rattus norvegicus [5]): 39.7%; Activity (Rattus norvegicus [6]): 16.2%; Activity (Rattus norvegicus [7]): 63.63%; Activity (Rattus norvegicus [8]): 39.05%; Activity (Rattus norvegicus [9]): 2.04 mL; Activity (Rattus norvegicus [10]): 2.42 mL; Activity (Rattus norvegicus [11]): 1.66 mL; Activity (Rattus norvegicus [12]): 12.17%; Activity (Rattus norvegicus [13]): 8.3%
92 | 20 | – | CC(OC/C=C/c1ccccc1)C1=C(C(=O)O)Oc2ccc(OCc3ccccc3)cc2O1 (configuration not stated) | –
– | – | – | COc1ccc2c(c1)c(CC(=O)O)c(C)n2C(=O)c1ccc(Cl)cc1 [INDOMETHACIN] | Activity (Rattus norvegicus [14]): 24.64%; Activity (Rattus norvegicus [15]): 2.06 mL; Activity (Rattus norvegicus [16]): 45.3%; Activity (Rattus norvegicus [17]): 45%; Activity (Rattus norvegicus [18]): 1.85 mL; Activity (Rattus norvegicus [19]): 40.19%; Activity (Rattus norvegicus [20]): 31.6%; Activity (Rattus norvegicus [21]): 1.65 mL; Activity (Rattus norvegicus [22]): 11.1%
73 | < 10 | – | CC(OCc1ccccc1)C1=C(C(=O)O)Oc2ccc(OCc3ccccc3)cc2O1 (configuration not stated) | –
40 | 0 | > 10000 | CN(CCc1ccccc1)C(=O)C1=COc2ccc(OCc3ccccc3)cc2O1 | –
– | 6 | – | CN(CCc1ccccc1)C(=O)C1=C(C(=O)O)Oc2cccc(OCc3ccccc3)c2O1 | inhibition (Leukotriene B4 receptor [1]): 39%
98 | 20 | 477 | O=C(O)C1=C(C(=O)N2CCC(Cc3ccccc3)CC2)Oc2ccc(OCc3ccccc3)cc2O1 | –
94 | 4.8 | 2700 | CN(CCc1ccccc1)C(=O)C1=C(C(=O)O)Oc2c(OCc3ccccc3)cccc2O1 | –
78 | 27 | – | O=C(O)C1=C(C(=O)N2CCC(Cc3ccccc3)CC2)Oc2cc(OCc3ccccc3)ccc2O1 | –
– | < 10 | – | CC1(CCOCc2ccccc2)OC(=O)C2=C1Oc1cc(OCc3ccccc3)ccc1O2 (configuration not stated) | inhibition (Leukotriene B4 receptor [1]): 13%
– | – | – | CCCc1c(OCCCOc2ccc(C(=O)NC)c(OC)c2CC2CC2)ccc2c1O[C@H](CCC(=O)O)CC2 | Ki (Leukotriene B4 receptor [4]): 1.3 nM
82 | 0 | – | CC(OC/C=C/c1ccccc1)C1=C(C(=O)O)Oc2cc(OCc3ccccc3)ccc2O1 (configuration not stated) | –
– | – | – | O=C(O)C1=C(C(=O)N2CCC(c3ccccc3)CC2)Oc2ccc(OCc3ccccc3)cc2O1 | inhibition (Leukotriene B4 receptor [1]): 29%
74 | 0 | – | CC(OCc1ccc2ccccc2c1)C1=C(C(=O)O)Oc2ccc(OCc3ccccc3)cc2O1 (configuration not stated) | –
